Measurements from patent US9169254B2, “Spiroimidazolone derivative” (Chugai Seiyaku Kabushiki Kaisha, priority 2009, dated 2015).

Target: T1, human PTH1 receptor (Homo sapiens, UniProt Q03431)
T1 sequence (Q03431 27-593): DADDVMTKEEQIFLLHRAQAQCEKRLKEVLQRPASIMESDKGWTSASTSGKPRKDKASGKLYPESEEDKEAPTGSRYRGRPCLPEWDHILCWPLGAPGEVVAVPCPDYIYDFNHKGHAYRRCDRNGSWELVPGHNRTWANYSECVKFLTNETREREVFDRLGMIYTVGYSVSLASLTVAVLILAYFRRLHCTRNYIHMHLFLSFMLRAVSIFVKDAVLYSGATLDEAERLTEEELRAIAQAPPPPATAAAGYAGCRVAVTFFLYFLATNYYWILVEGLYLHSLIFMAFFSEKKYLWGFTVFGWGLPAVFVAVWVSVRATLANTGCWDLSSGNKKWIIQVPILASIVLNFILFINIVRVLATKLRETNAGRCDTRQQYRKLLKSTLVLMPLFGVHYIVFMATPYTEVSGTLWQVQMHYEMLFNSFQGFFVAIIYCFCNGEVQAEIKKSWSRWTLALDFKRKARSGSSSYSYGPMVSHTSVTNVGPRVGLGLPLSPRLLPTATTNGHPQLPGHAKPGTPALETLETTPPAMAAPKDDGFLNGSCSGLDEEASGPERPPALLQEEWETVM
Experiment: In vitro cAMP signal activity in HKRK-B7 cells (LLC-PK1 cells overexpressing the human PTH1 receptor)
Type: cell-based
Conditions: HKRK-B7 cells; compound at 1×10^−3 M; cAMP produced as percentage of that produced by hPTH(1-34) at 100 nM

Row | cAMP production activity (%) | SMILES
1 | 26 | O=C1NC(C2CCCCC2)=NC12CCN(S(=O)(=O)CCCc1cccc(C(F)(F)F)c1)CC2 [Compound 315, 2-cyclohexyl-8-[3-(3-trifluoromethyl-phenyl)-propane-1-sulfonyl]-1,3,8-triaza-spiro[4.5]dec-1-en-4-one]
2 | 50 | Cc1cc(C(=O)N(C)C)ccc1CCS(=O)(=O)N1CCC2(CC1)N=C(C1(C(F)(F)F)CCC1)NC2=O [Compound 137, 3,N,N-trimethyl-4-{2-[4-oxo-2-(1-trifluoromethyl-cyclobutyl)-1,3,8-triaza-spiro[4.5]dec-1-ene-8-sulfonyl]-ethyl}-benzamide]
3 | 99 | Cc1cc(N(C)C(N)=O)cc(C)c1/C=C/[S@TB4](=O)(=O)N1CCC2(CC1)N=C(c1cccc(CCCC(F)(F)F)c1)NC2=O [Compound 1089, 1-[3,5-dimethyl-4-((E)-2-{4-oxo-2-[3-(4,4,4-trifluoro-butyl)-phenyl]-1,3,8-triaza-spiro[4.5]dec-1-ene-8-sulfonyl}-vinyl)-phenyl]-1-methyl-urea]
4 | 88 | Cc1cc(C(=O)N(C)C)ccc1CCS(=O)(=O)N1CCC2(CC1)N=C(c1ccc(F)cc1Cl)NC2=O [Compound 90, 4-{2-[2-(2-chloro-4-fluoro-phenyl)-4-oxo-1,3,8-triaza-spiro[4.5]dec-1-ene-8-sulfonyl]-ethyl}-3,N,N-trimethyl-benzamide]
5 | 78 | Cc1cc(C(=O)N2CCN(c3nccs3)CC2)ccc1CCS(=O)(=O)N1CCC2(CC1)N=C(c1cccc(C(F)(F)F)c1)NC2=O [Compound 364, 8-{2-[2-methyl-4-(4-thiazol-2-yl-piperazine-1-carbonyl)-phenyl]-ethanesulfonyl}-2-(3-trifluoromethyl-phenyl)-1,3,8-triaza-spiro[4.5]dec-1-en-4-one]
6 | 42 | CC(C)(C)CC(=O)N1CCCC(C2=NC3(CCN(S(=O)(=O)c4cccc(Cl)c4)CC3)C(=O)N2)C1 (stereo not shown) [Compound 423, 8-(3-Chloro-benzenesulfonyl)-2-[1-(3,3-dimethyl-butyryl)-piperidin-3-yl]-1,3,8-triaza-spiro[4.5]dec-1-en-4-one]
7 | 19 | Cc1cc(C(=O)N2CCN(S(C)(=O)=O)CC2)ccc1CCS(=O)(=O)N1CCC2(CC1)N=C(c1cccc(C(F)(F)F)c1)NC2=O [Compound 352, 8-{2-[4-(4-Methanesulfonyl-piperazine-1-carbonyl)-2-methyl-phenyl]-ethanesulfonyl}-2-(3-trifluoromethyl-phenyl)-1,3,8-triaza-spiro[4.5]dec-1-en-4-one]
8 | 82 | CCCCCCCC#CC1=NC2(CCN(S(=O)(=O)/C=C/c3c(C)cc(N(C)C(N)=O)cc3C)CC2)C(=O)N1 [Compound 1027, 1-{3,5-dimethyl-4-[(E)-2-(2-non-1-ynyl-4-oxo-1,3,8-triaza-spiro[4.5]dec-1-ene-8-sulfonyl)-vinyl]-phenyl}-1-methyl-urea]
9 | 83 | CC(=O)Nc1ccc(CCS(=O)(=O)N2CCC3(CC2)N=C(C2CCC(=CCCF)CC2)NC3=O)c(C)c1 (stereo not shown) [Compound 1066, N-[4-(2-{2-[4-(3-Fluoro-propylidene)-cyclohexyl]-4-oxo-1,3,8-triaza-spiro[4.5]dec-1-ene-8-sulfonyl}-ethyl)-3-methyl-phenyl]-acetamide]
10 | 94 | Cc1cc(C(=O)N2CCN(C(=O)CCCN(C)C)CC2)cc(C)c1/C=C/S(=O)(=O)N1CCC2(CC1)N=C(c1cccc(OC(F)(F)F)c1)NC2=O [Compound 449, 8-((E)-2-{4-[4-(4-dimethylamino-butyryl)-piperazine-1-carbonyl]-2,6-dimethyl-phenyl}-ethenesulfonyl)-2-(3-trifluoromethoxy-phenyl)-1,3,8-triaza-spiro[4.5]dec-1-en-4-one]
11 | 36 | Cc1cc(N2C(=O)N(CCO)C(C)(C)C2=O)cc(C)c1/C=C/S(=O)(=O)N1CCC2(CC1)N=C(c1cccc(OC(F)(F)F)c1)NC2=O [Compound 714, 3-(3,5-dimethyl-4-{(E)-2-[4-oxo-2-(3-trifluoromethoxy-phenyl)-1,3,8-triaza-spiro[4.5]dec-1-ene-8-sulfonyl]-vinyl}-phenyl)-1-(2-hydroxy-ethyl)-5,5-dimethyl-imidazolidine-2,4-dione]
12 | 63 | CC(=O)Nc1ccc(CCS(=O)(=O)N2CCC3(CC2)N=C(c2cccc(C(F)(F)F)c2)NC3=O)c(C)c1 [Compound 298, N-(3-methyl-4-{2-[4-oxo-2-(3-trifluoromethyl-phenyl)-1,3,8-triaza-spiro[4.5]dec-1-ene-8-sulfonyl]-ethyl}-phenyl)-acetamide]
13 | 58 | O=C1NC(c2cccc(OC(F)(F)F)c2)=NC12CCN(S(=O)(=O)CCc1cccc3c1OC(F)(F)O3)CC2 [Compound 307, 8-[2-(2,2-difluoro-benzo[1,3]dioxol-4-yl)-ethanesulfonyl]-2-(3-trifluoromethoxy-phenyl)-1,3,8-triaza-spiro[4.5]dec-1-en-4-one]
14 | 1.0 | O=C1NC(c2ccncc2)=NC12CCN(S(=O)(=O)c1cccc(Cl)c1)CC2 [Compound 2, 8-(3-chloro-benzenesulfonyl)-2-pyridin-4-yl-1,3,8-triaza-spiro[4.5]dec-1-en-4-one]
15 | 23 | CN(C)C(=O)c1cccc(-c2ccc(S(=O)(=O)N3CCC4(CC3)N=C(c3cccc(C(F)(F)F)c3)NC4=O)s2)c1 [Compound 330, N,N-dimethyl-3-{5-[4-oxo-2-(3-trifluoromethyl-phenyl)-1,3,8-triaza-spiro[4.5]dec-1-ene-8-sulfonyl]-thiophen-2-yl}-benzamide]
16 | 83 | CCOc1cc(NC(C)=O)ccc1CCS(=O)(=O)N1CCC2(CC1)N=C(C1CCC(C)CC1)NC2=O (stereo not shown) [Compound 751, N-(3-ethoxy-4-{2-[2-(4-methyl-cyclohexyl)-4-oxo-1,3,8-triaza-spiro[4.5]dec-1-ene-8-sulfonyl]-ethyl}-phenyl)-acetamide]
17 | 54 | CCCCc1ccc2cc1OCCCCCOCCN(C)C(=O)c1ccc(c(C)c1)CCS(=O)(=O)N1CCC3(CC1)N=C2NC3=O [Compound 1434]
18 | 53 | CCCCC#CCCCC1=NC2(CCN(S(=O)(=O)CCc3c(C)cc(N(C)C(N)=O)cc3C)CC2)C(=O)N1 [Compound 1081, 1-{3,5-Dimethyl-4-[2-(2-non-4-ynyl-4-oxo-1,3,8-triaza-spiro[4.5]dec-1-ene-8-sulfonyl)-ethyl]-phenyl}-1-methyl-urea]
19 | 64 | CCCCCCCCCC1=NC2(CCN(S(=O)(=O)CCc3c(C)cc(C(=O)O)cc3C)CC2)C(=O)N1 [Compound 796, 3,5-dimethyl-4-[2-(2-nonyl-4-oxo-1,3,8-triaza-spiro[4.5]dec-1-ene-8-sulfonyl)-ethyl]-benzoic acid]
20 | 69 | CNc1cc(C)c(/C=C/S(=O)(=O)N2CCC3(CC2)N=C(CCCCCCCC(F)(F)C(F)(F)F)NC3=O)c(C)c1 [Compound 691, 8-[(E)-2-(2,6-Dimethyl-4-methylamino-phenyl)-ethenesulfonyl]-2-(8,8,9,9,9-pentafluoro-nonyl)-1,3,8-triaza-spiro[4.5]dec-1-en-4-one]
21 | 59 | Cc1cc(C(=O)N2CC(F)C2)ccc1CCS(=O)(=O)N1CCC2(CC1)N=C(c1cccc(C(F)(F)F)c1)NC2=O [Compound 379, 8-{2-[4-(3-fluoro-azetidine-1-carbonyl)-2-methyl-phenyl]-ethanesulfonyl}-2-(3-trifluoromethyl-phenyl)-1,3,8-triaza-spiro[4.5]dec-1-en-4-one]
22 | 72 | CC(=O)N(C)Cc1cc(C)c(/C=C/S(=O)(=O)N2CCC3(CC2)N=C(C2CCC(CCC(F)(F)F)CC2)NC3=O)c(C)c1 (stereo not shown) [Compound 559, N-[3,5-dimethyl-4-((E)-2-{4-oxo-2-[4-(3,3,3-trifluoro-propyl)-cyclohexyl]-1,3,8-triaza-spiro[4.5]dec-1-ene-8-sulfonyl}-vinyl)-benzyl]-N-methyl-acetamide]
23 | 60 | Cc1cc(N2C(=O)CNC2=O)ccc1/C=C/S(=O)(=O)N1CCC2(CC1)N=C(C1CCC(C)CC1)NC2=O (stereo not shown) [Compound 504, 3-(3-methyl-4-{(E)-2-[2-(4-methyl-cyclohexyl)-4-oxo-1,3,8-triaza-spiro[4.5]dec-1-ene-8-sulfonyl]-vinyl}-phenyl)-imidazolidine-2,4-dione]
24 | 51 | Cc1cc(C(=O)N2C[C@@H](C)O[C@@H](C)C2)ccc1CCS(=O)(=O)N1CCC2(CC1)N=C(c1cccc(OC(F)(F)F)c1)NC2=O [Compound 666, 8-{2-[4-((2R,6S)-2,6-dimethyl-morpholine-4-carbonyl)-2-methyl-phenyl]-ethanesulfonyl}-2-(3-trifluoromethoxy-phenyl)-1,3,8-triaza-spiro[4.5]dec-1-en-4-one]
25 | 93 | Cc1cc(N2C(=O)CN(C)C2=O)cc(C)c1CCS(=O)(=O)N1CCC2(CC1)N=C(C1CCC(CCC(F)(F)F)CC1)NC2=O (stereo not shown) [Compound 760, 3-[3,5-dimethyl-4-(2-{4-oxo-2-[4-(3,3,3-trifluoro-propyl)-cyclohexyl]-1,3,8-triaza-spiro[4.5]dec-1-ene-8-sulfonyl}-ethyl)-phenyl]-1-methyl-imidazolidine-2,4-dione]
